Laboratory results as given in patent US9024017B2, “Octahydro-cyclopentapyrrolyl antagonists of CCR2” (Janssen Pharmaceutica NV, priority 2012, dated 2015).

Target: T1, CCR2 (Homo sapiens, UniProt P41597)
T1 construct: host or cells: THP-1 (human monocytic cell line)
Assay: MCP-1 Receptor Binding Assay in THP-1 Cells
Details: read-out: MCP1B_v3 IC50
How it was run: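 Human monocytic THP-1 cells incubated 2 h at 30 °C with 0.5 nM 125I-MCP-1 and varying concentrations of test compound or unlabelled MCP-1. Cells filter-harvested and counted by scintillation; blank subtracted, compared with vehicle; nonspecific binding with 1 μM cold MCP-1.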

T1 sequence (P41597 whole entry): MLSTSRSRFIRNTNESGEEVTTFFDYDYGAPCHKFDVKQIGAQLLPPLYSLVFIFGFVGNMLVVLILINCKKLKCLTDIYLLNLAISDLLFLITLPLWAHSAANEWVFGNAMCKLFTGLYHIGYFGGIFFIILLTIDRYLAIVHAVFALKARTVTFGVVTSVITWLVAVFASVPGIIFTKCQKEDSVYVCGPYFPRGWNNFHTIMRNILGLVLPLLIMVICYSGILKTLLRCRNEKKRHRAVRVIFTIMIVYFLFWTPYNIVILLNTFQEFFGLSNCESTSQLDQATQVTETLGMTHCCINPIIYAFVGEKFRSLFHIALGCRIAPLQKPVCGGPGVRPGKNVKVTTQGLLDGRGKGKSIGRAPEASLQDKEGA

Row | Structure (SMILES) | IC50
1 | COCCN[C@@H]1C[C@H]2CN(C(N)=O)C[C@@]2(C(=O)N2CCc3ncc(C(F)(F)F)cc3C2)C1 [Example 7] | 5060 nM
2 | NC(=O)N1C[C@@H]2C[C@@H](NC3CCOCC3)C[C@]2(C(=O)N2CCc3ncc(C(F)(F)F)cc3C2)C1 [Example 8] | 170 nM
3 | COC1COCCC1N[C@@H]1C[C@H]2CN(C(=O)OCc3cccc(C#N)c3)C[C@@]2(C(=O)N2CCc3ncc(C(F)(F)F)cc3C2)C1 (stereo partly drawn) [Example 59, (3aR,5R,6aR)-3-Cyanobenzyl 5-((3-methoxytetrahydro-2H-pyran-4-yl)amino)-3a-(3-(trifluoromethyl)-5,6,7,8-tetrahydro-1,6-naphthyridine-6-carbonyl)hexahydrocyclopenta-[c]pyrrole-2(1H)-carboxylate] | 220 nM

Stronger by IC50, values ahead:

Row | IC50 | Structure (SMILES)
4 | 30 nM | CO[C@@H]1COCC[C@@H]1N[C@@H]1C[C@H]2CN(C(N)=O)C[C@@]2(C(=O)N2CCc3ncc(C(F)(F)F)cc3C2)C1 [Example 3]
5 | 40 nM | CO[C@H]1COCC[C@H]1N[C@@H]1C[C@H]2CN(C(N)=O)C[C@@]2(C(=O)N2CCc3ncc(C(F)(F)F)cc3C2)C1 [Example 4]
6 | 30 nM | CO[C@@H]1COCC[C@@H]1N[C@@H]1C[C@H]2CN(C(=O)OCCC3CCOCC3)C[C@@]2(C(=O)N2CCc3ncc(C(F)(F)F)cc3C2)C1 [Example 43, (3aR,5R,6aR)-2-(Tetrahydro-2H-pyran-4-yl)ethyl 5-(((3S,4S)-3-methoxytetrahydro-2H-pyran-4-yl)amino)-3a-(3-(trifluoromethyl)-5,6,7,8-tetrahydro-1,6-naphthyridine-6-carbonyl)hexahydrocyclopenta[c]pyrrole-2(1H)-carboxylate]
7 | 80 nM | CO[C@H]1COCC[C@H]1N[C@@H]1C[C@H]2CN(C(=O)OCCC3CCOCC3)C[C@@]2(C(=O)N2CCc3ncc(C(F)(F)F)cc3C2)C1 [Example 44, (3aR,5R,6aR)-2-(Tetrahydro-2H-pyran-4-yl)ethyl 5-(((3R,4R)-3-methoxytetrahydro-2H-pyran-4-yl)amino)-3a-(3-(trifluoromethyl)-5,6,7,8-tetrahydro-1,6-naphthyridine-6-carbonyl)hexahydrocyclopenta[c]pyrrole-2(1H)-carboxylate]
